# Test results reported in patent US20220023227A1, “SYSTEMS AND METHODS FOR FORMING NANOCAPSULES BY PULSED ELECTROSPRAYING” (priority 2020, published 2022).
# Entries after “also recorded” stand apart in the source; their conditions may differ.
# Columns and labels:
# 4T1 tumor cells [1] = assay: Metastatic outgrowth of disseminated 4T1 tumor cells, mice euthanized 72h after last injection; type: in vivo
# Description: Mice were sacrificed 3 days after the last dose injection to check the metastatic colonization of luciferase expressing 4T1 tumor cells. […] Results are presented as mean±SD (3 mice in each group).
# (§1) Murine 4T1 cells were originally isolated from a spontaneous mammary tumor in the BALB/c strain and have been reported to show characteristics of human triple-negative breast cancer (TNBC) subtype. We first implanted 50,000 4T1 tumor cells into mammary fat pad of syngeneic mice and started treatment one-week post-implantation. After 3 doses by injection (one dose/week), the treatment was terminated and mice were followed for tumor growth and survival. […] Second set of mice euthanized to examine metastatic colonization of tumor cells in the lungs 72h after the last injection.
# 4T1 tumor cells [2] = assay: 4T1 mammary fat pad tumor growth and survival after 3 weekly doses; type: in vivo, BALB/c mice
# Experimental: Highly aggressive 4T1 tumor cells were implanted into 4th mammary fat pad of BALB/c mice and treatment was started one week post-implantation and total 3 doses (one dose/week) were injected. […] Results are presented as mean±SD (3-5 mice in each group).
# as §1
structure (smiles),measurement,setting,value
"CC(=O)O[C@H]1C(=O)[C@@]2(C)[C@H]([C@H](OC(=O)c3ccccc3)[C@]3(O)C[C@H](OC(=O)[C@H](O)[C@@H](NC(=O)c4ccccc4)c4ccccc4)C(C)=C1C3(C)C)[C@]1(OC(C)=O)CO[C@@H]1C[C@@H]2O [naked paclitaxel, paclitaxel]",metastatic colonization of tumor cells in the lungs (ex vivo lung imaging),"4T1 tumor cells [1]; 72h after the last injection, 3 mice in each group, FIG. 2d-e",micro metastatic colonization; also recorded: only micro metastases
same,tumor weight,"4T1 tumor cells [1]; IP-injection, 72h after the last injection, FIG. 2a-b",decreased the tumor weight but this decrease was not significant; also recorded: decrease the tumor weight
same,"signal intensity of luciferase in lungs, difference between groups","4T1 tumor cells [1]; ex vivo lung imaging, FIG. 2d-e",not significantly different
same,survival compared with tumor bearing mice that did not have any treatment,"4T1 tumor cells [2]; 3 doses, one dose/week",longer
same,"tumor size, difference between groups","4T1 tumor cells [2]; up to 42 days, FIG. 1b",no significant difference
